{
  "source": "patent US20240139147A1",
  "about": "“METHOD FOR IMPROVING BIOAVAILABILITY OF NAD+ DERIVATIVES” (HOBOOMLIFE BIO-TECHNOLOGY (SHENZHEN) CO., LTD., priority 2022, published 2024)",
  "key": {"[1]": {"system": "NAD+", "experiment": "Increasing the level of NAD+ by controlled-release NR microsphere 4, blood NAD+ by HPLC (Example 6)", "assay_type": "in vivo", "details": "SD rats, intragastric; for NAD+ level in blood: 100 mg/kg NR and/or 10 mg/kg apigenin", "experimental": "(§1) 20 SD rats weighing about 200 g were purchased, and an experiment was carried out after one week of adaptive feeding. The 20 rats were divided into 5 groups, 4 rats per group (half male and half female). The rats in group 1 were not treated, the rats in group 2 were administered intragastrically with 100 mg/kg of NR, the rats in group 3 were administered intragastrically with 10 mg/kg of apigenin, the rats in group 4 were administered intragastrically with 100 mg/kg of NR and 10 mg/kg of apigenin at the same time, and the rats in group 5 were administered intragastrically with the controlled-release NR microspheres 4 containing 100 mg/kg of NR and 10 mg/kg of apigenin.\nBlood was collected from the rat in each groups via the tail vein at time points of 2 h, 2.5 h, 3 h, 3.5 h, 4 h, 4.5 h, 5 h, 5.5 h, and 6 h, respectively, after intragastric administration of corresponding microspheres, and 0.1 mL of blood was collected each time by each rat. After the vein blood collected from each rat at each time point was treated, the NAD+ level in the blood sample was tested by high performance liquid chromatography (HPLC). The test results of 4 rats in each group were averaged."}, "[2]": {"system": "NAD+", "experiment": "Increasing the level of NAD+ by controlled-release NR microspheres 4, 7, 8, blood NAD+ by HPLC (Example 12)", "assay_type": "in vivo", "details": "SD rats, intragastric; for Content of NAD+ in blood: 100 mg/kg NR and/or 10 mg/kg apigenin", "experimental": "as §1, with “28 SD rats” for “20 SD rats”, “feeding. The 28 rats were” for “feeding. The 20 rats were”, “divided into 7 groups, 4” for “divided into 5 groups, 4”, “same time, the rats” for “same time, and the rats”, “mg/kg of apigenin, the rats in group 6 were administered intragastrically with the controlled-release NR microspheres 7 containing 100 mg/kg of NR and 10 mg/kg of apigenin, and the rats in group 7 were administered intragastrically with the controlled-release NR microspheres 8 containing 100 mg/kg of NR and 10 mg/kg of apigenin.” for “mg/kg of apigenin.”\nBlood was collected from each rat in the groups via the tail vein at time points of 2 h, 2.5 h, 3 h, 3.5 h, 4 h, 4.5 h, 5 h, 5.5 h, and 6 h, respectively, after intragastric administration of corresponding microspheres, and 0.1 mL of blood was collected each time by each rat. After the vein blood collected from the rat in each groups at each time point was treated, the NAD+ level in the blood sample was tested by high performance liquid chromatography (HPLC). The test results of 4 rats in each group were averaged. […] There are time differences between a peak of the releasing of apigenin and a peak of the releasing of NR in the controlled-release […], the controlled-release NR microsphere 7, and the controlled-release NR microsphere 8 that are prepared based on different ratios of apigenin (the CD38 inhibitor) to NR, and the time differences between a peak of the releasing of apigenin and a peak of the releasing of NR in the three microspheres are consistent and are all 0.5-1.5 h."}, "[3]": {"system": "NAD+", "experiment": "Increasing the level of NAD+ by controlled-release NR microspheres 4, 11, 12, blood NAD+ by HPLC (Example 18)", "assay_type": "in vivo", "details": "SD rats, intragastric; for NAD+ level in blood: 100 mg/kg NR and/or 10 mg/kg apigenin", "experimental": "as §1, with “28 SD” for “20 SD”, “The 28” for “The 20”, “into 7” for “into 5”, “of apigenin,” for “of apigenin at the same time, and”, “microspheres 2 containing 100 mg/kg of NR and 10 mg/kg of apigenin, the rats in group 6 were administered intragastrically with the controlled-release NR microspheres 11 containing 100 mg/kg of NR and 10 mg/kg of apigenin, and the rats in group 7 were administered intragastrically with the controlled-release NR microspheres 12” for “microspheres 4”\nBlood was collected from rat the in each groups via the tail vein at time points of 2 h, 2.5 h, 3 h, 3.5 h, 4 h, 4.5 h, 5 h, 5.5 h, and 6 h, respectively, after intragastric administration of corresponding microspheres, and 0.1 mL of blood was collected each time by each rat. After the vein blood collected from each rat in the groups at each time point was treated, the NAD+ level in the blood sample was tested by high performance liquid chromatography (HPLC). The test results of 4 rats in each group were averaged. […] There are time differences between a peak of the releasing of apigenin and a peak of the releasing NR in the controlled-release NR microsphere 4, the controlled-release NR microsphere 11, and the controlled-release NR microsphere 12 that are prepared based on different mass ratios of apigenin (the CD38 inhibitor) to the excipient and different mass ratios of NR to the excipient, and the time differences between a peak of the releasing of apigenin and a peak of the releasing NR in the three microspheres are consistent and are all about 0.5 h to 1.5 h."}, "[4]": {"details": "in vivo; cited from earlier work"}},
  "data": [
    {"smiles": "O=c1cc(-c2ccc(O)cc2)oc2cc(O)cc(O)c12", "note": "[Apigenin, apigenin]", "values": [
      {"measurement": "level of NAD+ in the rat compared with the blank group (in words)", "setting": "[1]", "value": "can increase the level of NAD+ in the rat"},
      {"measurement": "NAD+ level in blood", "setting": "[1]; 2 h", "value": 141, "unit": "µM"},
      {"measurement": "NAD+ level in blood", "setting": "[1]; 2.5 h", "value": 148, "unit": "µM"},
      {"measurement": "NAD+ level in blood", "setting": "[1]; 3 h", "value": 176, "unit": "µM"},
      {"measurement": "NAD+ level in blood", "setting": "[1]; 3.5 h", "value": 171, "unit": "µM"},
      {"measurement": "NAD+ level in blood", "setting": "[1]; 4 h", "value": 160, "unit": "µM"},
      {"measurement": "NAD+ level in blood", "setting": "[1]; 4.5 h", "value": 156, "unit": "µM"},
      {"measurement": "NAD+ level in blood", "setting": "[1]; 5 h", "value": 143, "unit": "µM"},
      {"measurement": "NAD+ level in blood", "setting": "[1]; 5.5 h", "value": 144, "unit": "µM"},
      {"measurement": "NAD+ level in blood", "setting": "[1]; 6 h", "value": 138, "unit": "µM"},
      {"measurement": "level of NAD+ in the rat compared with the blank group (in words)", "setting": "[2]", "value": "can increase the level of NAD+ in the rat"},
      {"measurement": "Content of NAD+ in blood", "setting": "[2]; 2 h", "value": 144, "unit": "µM"},
      {"measurement": "Content of NAD+ in blood", "setting": "[2]; 2.5 h", "value": 153, "unit": "µM"},
      {"measurement": "Content of NAD+ in blood", "setting": "[2]; 3 h", "value": 184, "unit": "µM"},
      {"measurement": "Content of NAD+ in blood", "setting": "[2]; 3.5 h", "value": 175, "unit": "µM"},
      {"measurement": "Content of NAD+ in blood", "setting": "[2]; 4 h", "value": 163, "unit": "µM"},
      {"measurement": "Content of NAD+ in blood", "setting": "[2]; 4.5 h", "value": 159, "unit": "µM"},
      {"measurement": "Content of NAD+ in blood", "setting": "[2]; 5 h", "value": 146, "unit": "µM"},
      {"measurement": "Content of NAD+ in blood", "setting": "[2]; 5.5 h", "value": 139, "unit": "µM"},
      {"measurement": "Content of NAD+ in blood", "setting": "[2]; 6 h", "value": 141, "unit": "µM"},
      {"measurement": "level of NAD+ in the rat compared with the blank group (in words)", "setting": "[3]", "value": "can increase the level of NAD+ in the rat"},
      {"measurement": "NAD+ level in blood", "setting": "[3]; 2 h", "value": 132, "unit": "µM"},
      {"measurement": "NAD+ level in blood", "setting": "[3]; 2.5 h", "value": 150, "unit": "µM"},
      {"measurement": "NAD+ level in blood", "setting": "[3]; 3 h", "value": 179, "unit": "µM"},
      {"measurement": "NAD+ level in blood", "setting": "[3]; 3.5 h", "value": 173, "unit": "µM"},
      {"measurement": "NAD+ level in blood", "setting": "[3]; 4 h", "value": 161, "unit": "µM"},
      {"measurement": "NAD+ level in blood", "setting": "[3]; 4.5 h", "value": 157, "unit": "µM"},
      {"measurement": "NAD+ level in blood", "setting": "[3]; 5 h", "value": 166, "unit": "µM"},
      {"measurement": "NAD+ level in blood", "setting": "[3]; 5.5 h", "value": 138, "unit": "µM"},
      {"measurement": "NAD+ level in blood", "setting": "[3]; 6 h", "value": 140, "unit": "µM"},
      {"measurement": "Metabolic half-life", "setting": "[4]", "value": 91.8, "unit": "h"}
    ]},
    {"smiles": "NC(=O)c1ccc[n+]([C@@H]2O[C@H](CO)[C@@H](O)[C@H]2O)c1", "note": "[NR, nicotinamide riboside]", "values": [
      {"measurement": "level of NAD+ in the rat compared with the blank group (in words)", "setting": "[1]", "value": "can increase the level of NAD+ in the rat"},
      {"measurement": "NAD+ level in blood", "setting": "[1]; 2 h", "value": 131, "unit": "µM"},
      {"measurement": "NAD+ level in blood", "setting": "[1]; 2.5 h", "value": 196, "unit": "µM"},
      {"measurement": "NAD+ level in blood", "setting": "[1]; 3 h", "value": 181, "unit": "µM"},
      {"measurement": "NAD+ level in blood", "setting": "[1]; 3.5 h", "value": 163, "unit": "µM"},
      {"measurement": "NAD+ level in blood", "setting": "[1]; 4 h", "value": 142, "unit": "µM"},
      {"measurement": "NAD+ level in blood", "setting": "[1]; 4.5 h", "value": 154, "unit": "µM"},
      {"measurement": "NAD+ level in blood", "setting": "[1]; 5 h", "value": 159, "unit": "µM"},
      {"measurement": "NAD+ level in blood", "setting": "[1]; 5.5 h", "value": 139, "unit": "µM"},
      {"measurement": "NAD+ level in blood", "setting": "[1]; 6 h", "value": 141, "unit": "µM"},
      {"measurement": "level of NAD+ in the rat compared with the blank group (in words)", "setting": "[2]", "value": "can increase the level of NAD+ in the rat"},
      {"measurement": "Content of NAD+ in blood", "setting": "[2]; 2 h", "value": 128, "unit": "µM"},
      {"measurement": "Content of NAD+ in blood", "setting": "[2]; 2.5 h", "value": 200, "unit": "µM"},
      {"measurement": "Content of NAD+ in blood", "setting": "[2]; 3 h", "value": 180, "unit": "µM"},
      {"measurement": "Content of NAD+ in blood", "setting": "[2]; 3.5 h", "value": 159, "unit": "µM"},
      {"measurement": "Content of NAD+ in blood", "setting": "[2]; 4 h", "value": 162, "unit": "µM"},
      {"measurement": "Content of NAD+ in blood", "setting": "[2]; 4.5 h", "value": 157, "unit": "µM"},
      {"measurement": "Content of NAD+ in blood", "setting": "[2]; 5 h", "value": 149, "unit": "µM"},
      {"measurement": "Content of NAD+ in blood", "setting": "[2]; 5.5 h", "value": 142, "unit": "µM"},
      {"measurement": "Content of NAD+ in blood", "setting": "[2]; 6 h", "value": 134, "unit": "µM"},
      {"measurement": "level of NAD+ in the rat compared with the blank group (in words)", "setting": "[3]", "value": "can increase the level of NAD+ in the rat"},
      {"measurement": "NAD+ level in blood", "setting": "[3]; 2 h", "value": 142, "unit": "µM"},
      {"measurement": "NAD+ level in blood", "setting": "[3]; 2.5 h", "value": 203, "unit": "µM"},
      {"measurement": "NAD+ level in blood", "setting": "[3]; 3 h", "value": 188, "unit": "µM"},
      {"measurement": "NAD+ level in blood", "setting": "[3]; 3.5 h", "value": 154, "unit": "µM"},
      {"measurement": "NAD+ level in blood", "setting": "[3]; 4 h", "value": 167, "unit": "µM"},
      {"measurement": "NAD+ level in blood", "setting": "[3]; 4.5 h", "value": 152, "unit": "µM"},
      {"measurement": "NAD+ level in blood", "setting": "[3]; 5 h", "value": 145, "unit": "µM"},
      {"measurement": "NAD+ level in blood", "setting": "[3]; 5.5 h", "value": 144, "unit": "µM"},
      {"measurement": "NAD+ level in blood", "setting": "[3]; 6 h", "value": 135, "unit": "µM"}
    ]}
  ]
}
